Experimental data: US20230081720A1, “MCL-1 INHIBITOR ANTIBODY-DRUG CONJUGATES AND METHODS OF USE” (NOVARTIS AG, priority 2019, published 2023)
Residue numbers refer to the chain shown, from its start. Where two headings read alike, the source gives them in different places.

B1: milatuzumab (antibody, V domains shown)
VH: QVQLQQSGSELKKPGASVKVSCKASGYTFTNYGVNWIKQAPGQGLQWMGWINPNTGEPTFDDDFKGRFAFSLDTSVSTAYLQISSLKADDTAVYFCSRSRGKNEAWFAYWGQGTLVTVSS
VL: DIQLTQSPLSLPVTLGQPASISCRSSQSLVHRNGNTYLHWFQQRPGQSPRLLIYTVSNRFSGVPDRFSGSGSGTDFTLKISRVEAEDVGVYFCSQSSHVPPTFGAGTRLEIK
notes: also called hLL1; WT IgG
B2: Hcmil x LCmil_NQ (antibody, V domains shown)
VH: B1 VH
VL: B1 VL with G34Q
notes: Tested as IgG; also called hLL1 heavy chain with hLL1 (NQ) light chain
B3: Mil_HCx hzVk1a (antibody, V domains shown)
VH: B1 VH
VL: DIVMTQTPLSLPVTPGEPASISCRSSQSLVHRNGNTYLHWYLQKPGQSPQLLIYTVSNRFSGVPDRFSGSGSGTDFTLKISRVEAEDVGVYFCSQSSHVPPTFGQGTKLEIK
notes: Tested as IgG; also called hLL1 heavy chain with hzLL1-Vk1a light chain
B4: Mil_HCx hzVk1b (antibody, V domains shown)
VH: B1 VH
VL: B1 VL with I2V, Q3V, L4M, F41Y, A105Q, R108K
notes: Tested as IgG; also called hLL1 heavy chain with hzLL1-Vk1b light chain
B5: VHmil x VK1aNQ (antibody, V domains shown)
VH: B1 VH
VL: B3 VL with G34Q
notes: Tested as IgG; also called VHmil × VK1aNQ; hLL1 heavy chain with hzLL1-Vk1a (NQ) light chain
B6: VHmil x VK1bNQ (antibody, V domains shown)
VH: B1 VH
VL: B1 VL with I2V, Q3V, L4M, G34Q, F41Y, A105Q, R108K
notes: Tested as IgG; also called VHmil × VK1bNQ; hLL1 heavy chain with hzLL1-Vk1b (NQ) light chain

What was measured:
[1] = biological target: Mcl-1 protein (Homo sapiens, UniProt Q07820); experiment: Inhibition of Mcl-1 by fluorescence polarization (FP); assay type: binding; settings: fluorescein-labelled ligand 1 nM, Mcl-1 protein 5 nM
Chain of Mcl-1 protein (Q07820 whole entry): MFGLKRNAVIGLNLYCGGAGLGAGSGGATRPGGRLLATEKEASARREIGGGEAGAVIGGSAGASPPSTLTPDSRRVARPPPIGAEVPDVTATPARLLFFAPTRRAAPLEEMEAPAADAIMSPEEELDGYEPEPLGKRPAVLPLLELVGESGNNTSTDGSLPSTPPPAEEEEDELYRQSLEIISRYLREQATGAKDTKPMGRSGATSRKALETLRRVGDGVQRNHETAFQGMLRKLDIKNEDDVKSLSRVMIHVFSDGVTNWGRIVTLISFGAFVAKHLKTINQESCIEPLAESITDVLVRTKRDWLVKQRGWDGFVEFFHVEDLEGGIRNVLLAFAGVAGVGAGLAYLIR
Procedure: The relative binding potency of each compound was determined via Fluorescence Polarization (FP).
An 11-point serial dilution of each compound was prepared in DMSO and 2 PI transferred into flat bottomed, low binding, 384-well plate (final DMSO concentration 5%). 38 μl of buffer (10 mM 4-(2-hydroxyethyl)-1-piperazineethanesulfonic acid [HEPES], 150 mM NaCl, 0.05% Tween 20, pH 7.4), containing the fluorescein-labelled ligand (final concentration 1 nM) and Mcl-1 protein (final concentration 5 nM) was then added.

[2] = system: MONO-MAC-1; assay type: cell-based; settings: CD74 ADC with the named linker-payload, 5 days
Procedure: (§1) Cell lines were cultured in media that is optimal for their growth at 5% CO2, 37° C. in a tissue culture incubator. Prior to seeding for the proliferation assay, the cells were split at least 2 days before the assay to ensure optimal growth density. […] Cell viability and cell density were determined using a cell counter (Vi-Cell XR Cell Viability Analyzer, Beckman Coulter). […] Cells were seeded at a density of 1,000 cells per well in 45 μL of standard growth media. Plates were incubated at 5% CO2, 37° C. overnight in a tissue culture incubator. […] Each drug concentration was tested in quadruplets. […] Plates were incubated at room temperature for 10 minutes to stabilize luminescent signals prior to reading using a luminescence reader (EnVision Multilabel Plate Reader, PerkinElmer). To evaluate the effect of the drug treatments, luminescent counts from wells containing untreated cells (100% viability) were used to normalize treated samples.

[3] = system: NOMO-1; assay type: cell-based
Procedure: as §1

[4] = system: EOL-1; assay type: cell-based
Procedure: as §1

[5] = biological target: soluble cyno CD74 (cyno); experiment: SPR, Biacore 8K; IgG captured by anti-IgG Fc, soluble CD74 as analyte; 1:1 model, apparent kinetics
Chain of soluble cyno CD74 (cyno) (P04233 other isoform, or with tags, fused parts or gaps): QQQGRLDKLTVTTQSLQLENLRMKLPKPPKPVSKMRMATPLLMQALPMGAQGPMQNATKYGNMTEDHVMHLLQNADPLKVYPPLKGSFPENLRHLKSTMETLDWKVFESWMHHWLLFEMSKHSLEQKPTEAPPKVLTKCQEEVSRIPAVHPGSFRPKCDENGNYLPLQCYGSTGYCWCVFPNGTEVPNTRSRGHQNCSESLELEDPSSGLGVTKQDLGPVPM

[6] = biological target: T1, soluble human CD74 (human, UniProt P04233-2 73-232, limits assumed); experiment: as above
T1 construct: CD74' flowed over as analyte; also called human CD74 protein
T1 sequence (looked up): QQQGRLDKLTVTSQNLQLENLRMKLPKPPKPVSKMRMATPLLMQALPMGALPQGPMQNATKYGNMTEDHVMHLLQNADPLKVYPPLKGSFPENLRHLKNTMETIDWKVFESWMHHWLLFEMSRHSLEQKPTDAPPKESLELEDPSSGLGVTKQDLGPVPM
Text: Double reference subtraction was completed to generate the final data.

[7] = CD74 ADC with the named linker-payload, 5 days
[8] = CD74 ADC with the named linker-payload, 5 days, read-out: NOMO-1 IC50
[9] = CD74 ADC with the named linker-payload, 5 days, read-out: EOL-1 IC50

Molecule	IC50 [1]	IC50 [2]	MONO-MAC-1 Amax [2]	IC50 [3]	NOMO-1 Amax [3, 7]	IC50 [4]	EOL-1 Amax [4, 7]	IC50 [3, 8]	IC50 [4, 9]	Kd [5]	koff [5]	kon [5]	Kd [6]	koff [6]	kon [6]
Cc1c(-c2c(-c3ccc(F)cc3)sc3ncnc(O[C@H](Cc4ccccc4OCc4ccnn4CC(F)(F)F)C(=O)O)c23)ccc(OCCN2CCN(C)CC2)c1Cl (atropisomer, axis not shown) [C12, (2R)-2-{[(5Sa)-5-{3-chloro-2-methyl-4-[2-(4-methylpiperazin-1-yl)ethoxy]phenyl}-6-(4-fluorophenyl)thieno[2,3-d]pyrimidin-4-yl]oxy}-3-(2-{[1-(2,2,2-trifluoroethyl)-1H-pyrazol-5-yl]methoxy}phenyl)propanoic Acid]	5.9 nM	–	–	–	–	–	–	–	–	–	–	–	–	–	–
Cc1c(-c2c(-c3ccc(F)cc3)sc3ncnc(O[C@H](Cc4ccccc4OCc4ccnc(-c5ccccc5CO)n4)C(=O)O)c23)ccc(OCCN2CCN(C)CC2)c1Cl [C6, (2R)-2-{[(5Sa)-5-{3-chloro-2-methyl-4-[2-(4-methylpiperazin-1-yl)ethoxy]phenyl}-6-(4-fluorophenyl)thieno[2,3-d]pyrimidin-4-yl]oxy}-3-[2-({2-[2-(hydroxymethyl)phenyl]pyrimidin-4-yl}methoxy)phenyl]propanoic acid]	1.18 nM	–	–	–	–	–	–	–	–	–	–	–	–	–	–
COCCOCCOCCOCCOCCOCCOCCOCCOCCOCCOCCOCCOCCOCCOCCOCCOCCOCCOCCOCCOCCOCCOCCOCCn1cc(COCc2cc(NC(=O)[C@H](CCCNC(N)=O)NC(=O)[C@@H](NC(=O)CCOCCN3C(=O)C=CC3=O)C(C)C)ccc2C[N+]2(C)CCN(CCOc3ccc(-c4c(-c5ccc(F)cc5)sc5ncnc(O[C@H](Cc6ccccc6OCc6ccnc(-c7ccccc7OC)n6)C(=O)O)c45)c(C)c3Cl)CC2)nn1 [L5-P1]	–	7.95 nM	84.9	2.22 nM	55.58	1.02 nM	75.06	–	–	–	–	–	–	–	–
COCCOCCOCCOCCOCCOCCOCCOCCOCCOCCOCCOCCOCCOCCOCCOCCOCCOCCOCCOCCOCCOCCOCCOCCC(=O)N(C)Cc1cc(NC(=O)[C@H](CCCNC(N)=O)NC(=O)[C@@H](NC(=O)CCOCCN2C(=O)C=CC2=O)C(C)C)ccc1C[N+]1(C)CCN(CCOc2ccc(-c3c(-c4ccc(F)cc4)sc4ncnc(O[C@H](Cc5ccccc5OCc5ccnc(-c6ccccc6OC)n5)C(=O)O)c34)c(C)c2Cl)CC1 [L30-P1]	–	5.45 nM	86.78	1.62 nM	78.95	0.251 nM	197.6	–	–	–	–	–	–	–	–
COCCOCCOCCOCCOCCOCCOCCOCCOCCOCCOCCOCCOCCOCCOCCOCCC(=O)N(C)Cc1cc(NC(=O)[C@H](CCCNC(N)=O)NC(=O)[C@@H](NC(=O)CCOCCN2C(=O)C=CC2=O)C(C)C)ccc1C[N+]1(C)CCN(CCOc2ccc(-c3c(-c4ccc(F)cc4)sc4ncnc(O[C@H](Cc5ccccc5OCc5ccnc(-c6ccccc6OC)n5)C(=O)O)c34)c(C)c2Cl)CC1 [L31-P1]	–	3.96 nM	110.3	1.2 nM	73.4	0.466 nM	83.98	–	–	–	–	–	–	–	–
COCCOCCOCCOCCOCCOCCOCCOCCOCCOCCOCCOCCC(=O)N(C)Cc1cc(NC(=O)[C@H](CCCNC(N)=O)NC(=O)[C@@H](NC(=O)CCOCCN2C(=O)C=CC2=O)C(C)C)ccc1C[N+]1(C)CCN(CCOc2ccc(-c3c(-c4ccc(F)cc4)sc4ncnc(O[C@H](Cc5ccccc5OCc5ccnc(-c6ccccc6OC)n5)C(=O)O)c34)c(C)c2Cl)CC1 [L32-P1]	–	6.72 nM	97.57	–	62.58	–	125	1.5 nM	0.16 nM	–	–	–	–	–	–
COc1ccccc1-c1nccc(COc2ccccc2C[C@@H](Oc2ncnc3sc(-c4ccc(F)cc4)c(-c4ccc(OCCN5CC[N+](C)(Cc6ccc(NC(=O)[C@H](CCCNC(N)=O)NC(=O)[C@@H](NC(=O)CCOCCN7C(=O)C=CC7=O)C(C)C)cc6COCc6cn(CCOCCOCCOCCOCCOCCOCCOCCOCCOCCOCCOCCOCCC(=O)O)nn6)CC5)c(Cl)c4C)c23)C(=O)O)n1 [L33-P1]	–	6.72 nM	89.18	2.58 nM	58.95	0.62 nM	66.96	–	–	–	–	–	–	–	–
COCCOCCOCCOCCOCCOCCOCCOCCOCCOCCOCCOCCOCCOCCOCCOCCn1cc(COCc2cc(NC(=O)[C@H](CCCNC(N)=O)NC(=O)[C@@H](NC(=O)CCOCCN3C(=O)C=CC3=O)C(C)C)ccc2C[N+]2(C)CCN(CCOc3ccc(-c4c(-c5ccc(F)cc5)sc5ncnc(O[C@H](Cc6ccccc6OCc6ccnc(-c7ccccc7OC)n6)C(=O)O)c45)c(C)c3Cl)CC2)nn1 [L34-P1]	–	6.28 nM	104.4	–	66.95	–	70.92	2.96 nM	0.736 nM	–	–	–	–	–	–
COc1ccccc1-c1nccc(COc2ccccc2C[C@@H](Oc2ncnc3sc(-c4ccc(F)cc4)c(-c4ccc(OCCN5CC[N+](C)(Cc6ccc(NC(=O)[C@H](CCCNC(N)=O)NC(=O)[C@@H](NC(=O)CCOCCN7C(=O)C=CC7=O)C(C)C)cc6CN(C)C(=O)OC[C@H](NC(=O)CS(=O)(=O)O)C(=O)O)CC5)c(Cl)c4C)c23)C(=O)O)n1 [L77-P1]	–	0.987 nM	108.2	3.19 nM	48.53	0.383 nM	102.6	–	–	–	–	–	–	–	–
B1	–	–	–	–	–	–	–	–	–	16 nM	0.00088 s⁻¹	56000 M⁻¹ s⁻¹	4.9 nM	0.00051 s⁻¹	100000 M⁻¹ s⁻¹
B2	–	–	–	–	–	–	–	–	–	26 nM	0.00077 s⁻¹	30000 M⁻¹ s⁻¹	3.4 nM	0.00033 s⁻¹	96000 M⁻¹ s⁻¹
B3	–	–	–	–	–	–	–	–	–	5.7 nM	0.00058 s⁻¹	100000 M⁻¹ s⁻¹	0.85 nM	0.00018 s⁻¹	210000 M⁻¹ s⁻¹
B4	–	–	–	–	–	–	–	–	–	5.1 nM	0.00058 s⁻¹	110000 M⁻¹ s⁻¹	0.72 nM	0.00017 s⁻¹	230000 M⁻¹ s⁻¹
B5	–	–	–	–	–	–	–	–	–	5.9 nM	0.00062 s⁻¹	100000 M⁻¹ s⁻¹	0.91 nM	0.00018 s⁻¹	200000 M⁻¹ s⁻¹
B6	–	–	–	–	–	–	–	–	–	5.3 nM	0.00058 s⁻¹	110000 M⁻¹ s⁻¹	0.76 nM	0.00016 s⁻¹	220000 M⁻¹ s⁻¹
